In ChEMBL document CHEMBL1144807, “Ciliatamides A-C, bioactive lipopeptides from the deep-sea sponge Aaptos ciliata” (J Nat Prod, 2008):
In brackets after ≈: the same amount, converted by molar mass. Activity calls are given as the source filed them. The calls are words filed in the database; no cut-off is given here.

Experiments:
Leishmania major = experiment: Antileishmanial activity against Leishmania major egfp promastigotes at 10 ug/ml; type: functional; conditions: for inhibition of growth at 10 µg/mL: read-out: GI
HeLa = experiment: Cytotoxicity against human HeLa cells lines by MTT assay; type: cell-based

SMILES: C=CCCCCCCCC(=O)N(C)[C@@H](Cc1ccccc1)C(=O)N[C@H]1CCCNC1=O [CILIATAMIDES C]
- Activity (Leishmania major): inactive
- IC50 (HeLa): 50 µg/mL (≈ 117 µM)

SMILES: C=CCCCCCCCC(=O)N(C)[C@@H](Cc1ccccc1)C(=O)N[C@H]1CCCCNC1=O [CILIATAMIDES A]
- inhibition of growth at 10 µg/mL (Leishmania major): 50%
- IC50 (HeLa): 50 µg/mL (≈ 113 µM)

SMILES: CCCCCCCC(=O)N(C)[C@@H](Cc1ccccc1)C(=O)N[C@H]1CCCCNC1=O [CILIATAMIDES B]
- inhibition of growth at 10 µg/mL (Leishmania major): 45.5%
- IC50 (HeLa): 4.5 µg/mL (≈ 10.8 µM)
